Source: patent US20240317758A1 (Halia Therapeutics, Inc., priority 2021, published 2024)

Tests used:
[1] = biological target: T1, full-length recombinant human NEK7 (Homo sapiens, UniProt Q8TDX7); assay: NEK7 enzymatic assay; type: biochemical; conditions: recombinant human NEK7, casein substrate, radiolabelled ATP
T1 construct: full-length recombinant human NEK7; GST (N); purchased SignalChem NO9-10G; host or cells: Sf9 insect cells (baculovirus)
In short: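 Full-length GST-tagged human NEK7 from Sf9 cells (assay concentration 70 nM) was used with casein (assay concentration 20 μM) in Hepes pH 7.5 buffer, 1% DMSO, and compound (3-fold dilutions, 10 μM to 0.5 nM) was preincubated 20 min at room temperature. Radiolabelled ATP was added for 2 h, phosphorylation was read on P81 paper, and IC50 was fitted from % activity remaining versus vehicle.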

IL-1β release = IL-1β release assay (THP-1 cells, PMA, LPS, nigericin); type: cell-based; conditions: Homo sapiens, LPS 250 ng/mL, nigericin 20 μM, cleaved IL-1β in media
Procedure: Approximately 1.5 million THP-1 cells were plated in each well of a 6-well TC plate and incubated with 40 nM PMA in RPMI (10% FBS, 1% Penstrep) for 24 hours. The media was then removed and cells were rested in RPMI (10% FBS, 1% Penstrep) for 24 hours after which time the media was removed and cells were pre-treated for 2 hours with various concentrations of compounds of interest (typically serial 3-fold dilution in RPMI+5% FBS, concentrations ranging from 1 μM to 0.5 nM) in RPMI (5% FBS). The media was again removed and cells were incubated with 250 ng/mL LPS and compounds of interest (concentrations as above) in RMPI (5% FBS) for 2 hours. The media was removed for a last time and cells were incubated with 20 μM nigericin and compounds of interest (concentrations as above) in Opti-MEM for 30 minutes. Cell media was then collected and the amount of cleaved IL-1β was determined using a JESS instrument (Protein Simple) and standard protocols. Cleaved Il-1β antibody was obtained from Cell Signaling (catalogue #83186S) and was used at 1:20 dilution in antibody diluent 2. Protein Simple 1× anti-Rabbit HRP secondary antibody was used along with Protein Simple luminol and peroxide for chemiluminescent detection. Primary antibody incubation time was increased from 30 minutes to 60 minutes.

T1 sequence (Q8TDX7 whole entry): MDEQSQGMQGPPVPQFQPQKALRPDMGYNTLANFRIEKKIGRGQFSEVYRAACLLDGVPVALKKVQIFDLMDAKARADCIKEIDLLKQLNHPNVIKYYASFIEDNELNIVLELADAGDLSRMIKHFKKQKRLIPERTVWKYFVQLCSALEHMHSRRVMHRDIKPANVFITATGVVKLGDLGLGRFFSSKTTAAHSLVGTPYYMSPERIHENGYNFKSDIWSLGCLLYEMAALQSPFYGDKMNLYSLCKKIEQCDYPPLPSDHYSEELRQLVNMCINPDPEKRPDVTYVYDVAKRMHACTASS

Row | IC50 [1] [µM] | IC50 (IL-1β release) [µM] | Structure (SMILES)
1 | < 0.1 | 0.05 to 0.25 | CN1CCN(Cc2ccc(NC(=O)Nc3ccc(-c4cn(C5CCN(S(C)(=O)=O)CC5)c5ncnc(N)c45)cc3F)cc2C(F)(F)F)CC1 [Example I-101, 1-(4-(4-amino-7-(1-(methylsulfonyl)piperidin-4-yl)-7H-pyrrolo[2,3-d]pyrimidin-5-yl)-2-fluorophenyl)-3-(4-((4-methylpiperazin-1-yl)methyl)-3-(trifluoromethyl)phenyl)urea]
2 | < 0.1 | > 1 | CN1CCC(n2cc(-c3ccc(NC(=O)Nc4ccc(CN5CCN(C)CC5)c(C(F)(F)F)c4)c(F)c3)c3c(N)ncnc32)CC1 [Example I-21, 1-(4-(4-amino-7-(1-methylpiperidin-4-yl)-7H-pyrrolo[2,3-d]pyrimidin-5-yl)-2-fluorophenyl)-3-(4-((4-methylpiperazin-1-yl)methyl)-3-(trifluoromethyl)phenyl)urea]
3 | 0.1 to 0.5 | 0.05 to 0.25 | CN1CCN(Cc2ncc(NC(=O)Nc3ccc(-c4cn(C5CC5)c5ncnc(N)c45)cc3F)cc2C(F)(F)F)CC1 [Example I-68, 1-(4-(4-amino-7-cyclopropyl-7H-pyrrolo[2,3-d]pyrimidin-5-yl)-2-fluorophenyl)-3-(6-((4-methylpiperazin-1-yl)methyl)-5-(trifluoromethyl)pyridin-3-yl)urea]
4 | < 0.1 | 0.05 to 0.25 | Nc1ncnc2c1c(-c1ccc(NC(=O)Nc3ccc(CN4CCN(CCO)CC4)c(C(F)F)c3)c(F)c1)cn2C1CC1 [Example I-72, 1-(4-(4-amino-7-cyclopropyl-7H-pyrrolo[2,3-d]pyrimidin-5-yl)-2-fluorophenyl)-3-(3-(difluoromethyl)-4-((4-(2-hydroxyethyl)piperazin-1-yl)methyl)phenyl)urea]
5 | > 2 | > 1 | CC(c1ccc(NC(=O)Nc2ccc(-c3cn(C4CC4)c4ncnc(N)c34)cc2F)cc1C(F)(F)F)N1CCN(C)CC1 (stereo not drawn) [Example I-6, 1-(4-(4-amino-7-cyclopropyl-7H-pyrrolo[2,3-d]pyrimidin-5-yl)-2-fluorophenyl)-3-(4-(1-(4-methylpiperazin-1-yl)ethyl)-3-(trifluoromethyl)phenyl)urea]
6 | < 0.1 | < 0.05 | CC(C)n1nc(-c2ccc(NC(=O)Nc3ccc(CN4CCN(C)CC4)c(C(F)(F)F)c3)cc2)c2c(N)ncnc21 [Example I-24, 1-(4-(4-amino-1-isopropyl-1H-pyrazolo[3,4-d]pyrimidin-3-yl)phenyl)-3-(4-((4-methylpiperazin-1-yl)methyl)-3-(trifluoromethyl)phenyl)urea]
7 | 0.1 to 0.5 | 0.25 to 1 | CN1CCN(Cc2ccc(NC(=O)Nc3ccc(-c4cn(C5CC5)c5ncnc(N)c45)cc3F)cc2C2CC2)CC1 [Example I-40, 1-(4-(4-amino-7-cyclopropyl-7H-pyrrolo[2,3-d]pyrimidin-5-yl)-2-fluorophenyl)-3-(3-cyclopropyl-4-((4-methylpiperazin-1-yl)methyl)phenyl)urea]
8 | < 0.1 | 0.05 to 0.25 | CN1CCN(C2CC(F)(F)c3cc(NC(=O)Nc4ccc(-c5nn(C6CC6)c6ncnc(N)c56)cc4F)ccc32)CC1 (stereo not drawn) [Example I-94, 1-(4-(4-amino-1-cyclopropyl-1H-pyrazolo[3,4-d]pyrimidin-3-yl)-2-fluorophenyl)-3-(3,3-difluoro-1-(4-methylpiperazin-1-yl)-2,3-dihydro-1H-inden-5-yl)urea]
9 | < 0.1 | < 0.05 | CN1CCC(Oc2ccc(NC(=O)Nc3ccc(-c4cn(C5CC5)c5ncnc(N)c45)cc3F)cc2C(F)(F)F)CC1 [Example I-47, 1-(4-(4-amino-7-cyclopropyl-7H-pyrrolo[2,3-d]pyrimidin-5-yl)-2-fluorophenyl)-3-(4-((1-methylpiperidin-4-yl)oxy)-3-(trifluoromethyl)phenyl)urea]
10 | < 0.1 | < 0.05 | CN1CCN(Cc2ccc(NC(=O)Nc3ccc(-c4cn(CC(C)(C)O)c5ncnc(N)c45)cc3F)cc2C(F)(F)F)CC1 [Example I-15, 1-(4-(4-amino-7-(2-hydroxy-2-methylpropyl)-7H-pyrrolo[2,3-d]pyrimidin-5-yl)-2-fluorophenyl)-3-(4-((4-methylpiperazin-1-yl)methyl)-3-(trifluoromethyl)phenyl)urea]
11 | < 0.1 | 0.25 to 1 | Nc1ncnc2c1c(-c1ccc(NC(=O)Nc3ccc(CN4CCNCC45CC5)c(C(F)(F)F)c3)c(F)c1)cn2C1CC1 [Example I-66, 1-(4-((4,7-diazaspiro[2.5]octan-4-yl)methyl)-3-(trifluoromethyl)phenyl)-3-(4-(4-amino-7-cyclopropyl-7H-pyrrolo[2,3-d]pyrimidin-5-yl)-2-fluorophenyl)urea]
12 | 0.5 to 2 | > 1 | CS(=O)(=O)N1CCN(Cc2ccc(NC(=O)Nc3ccc(-c4cn(C5CC5)c5ncnc(N)c45)cc3F)cc2C(F)(F)F)CC1 [Example I-98, 1-(4-(4-amino-7-cyclopropyl-7H-pyrrolo[2,3-d]pyrimidin-5-yl)-2-fluorophenyl)-3-(4-((4-(methylsulfonyl)piperazin-1-yl)methyl)-3-(trifluoromethyl)phenyl)urea]
